# Reference: publication PMC9130746, “In Vitro Activity of Peptide Antibiotics in Combination With Other Antimicrobials on Extensively Drug-Resistant Acinetobacter baumannii in the Planktonic and Biofilm Cell” (Frontiers in Pharmacology, 2022)
# Where two headings read alike, the source gives them in different places. Bridge positions count the residues as written; N and C are the ends. Square brackets hold non-standard residues; d marks the D form. Peptide text beside a SMILES is read from it. * marks the point of attachment. X1 = CC[C@H](C)CCCCC(=O)*; Dab = NCC[C@H](N)C(=O)O
# Columns and labels:
# [1] = tested on: extensively drug-resistant A. baumannii clinical isolates (biofilm cell); format: cell-based, Acinetobacter baumannii; settings: 24 h biofilm in TSB, then MH broth with drug 16–20 h 37°C, OD600
# Source text: (§1) Nine XDRAB strains were isolated from clinical specimens such as the septum, urine, or respiratory lavage fluid of patients from the respiratory intensive care unit, intensive care unit, the cardiothoracic surgery department, and the neurology department at the First Affiliated Hospital of Chengdu Medical College during the period from 2018 to 2020 (Chengdu, Sichuan, China). In addition, A. baumannii ATCC 19606, Staphylococcus aureus ATCC 29213, and Escherichia coli ATCC 25922 were used as quality control strains in antimicrobial susceptibility testing (AST) and obtained from the American Type Culture Collection (ATCC, Manassas, VA, United States).
# The minimum biofilm inhibitory concentrations (MBICs) were detected using a previous study protocol ([Kart et al., 2021]) for the antibacterial agents and peptide antibiotics for A. baumannii in the biofilm cell. First, bacterial cells were inoculated in Luria–Bertani agar medium at 37°C for 16–20 h. Next, the bacterial monoclones were resuspended in saline (0.9% sodium chloride) to adjust the bacterial content to reach the 0.5 McFarland turbidity standard. Then, 190 µl TSB and 10 µl bacterial resuspension were mixed in a 96-well plate. After incubating at 37°C for 24 h, the medium was aspirated, and 200 µl PBS was added to wash three times. Finally, 190 μl MH broth medium and 10 µl corresponding antibiotics were added into 96-well plate (NEST TC, 701001, www.cell-nest.com). The optical density was measured at OD600 after incubating for 16–20 h at 37°C.
# [2] = tested on: extensively drug-resistant A. baumannii clinical isolates (planktonic cell); experiment: microbe, parasite or virus in culture; format: cell-based, Acinetobacter baumannii
# Source text: as §1
# The minimum inhibitory concentrations (MICs) were determined by the broth microdilution method for the antibacterial agents and peptide antibiotics for A. baumannii based on the guidelines provided by the Clinical and Laboratory Standards Institute (CLSI) ([Humphries et al., 2021]). Briefly, bacterial cells were inoculated in Luria–Bertani agar medium at 37°C for 16–20 h, and then resuspended in saline (0.9% sodium chloride) to adjust the bacterial content to reach the 0.5 McFarland turbidity standard, followed by a 20-fold dilution. Antimicrobial solutions were prepared according to the CLSI ([Humphries et al., 2021]). Finally, 180 μl CAMHB, 10 µl corresponding antimicrobials, and 10 µl bacterial resuspension were added into 96-well plate (NEST TC, 701001, www.cell-nest.com). The value of OD600 was measured after incubating at 37°C for 16–20 h.
# [3] = isolate AB1, planktonic, broth microdilution, CAMHB, 37°C 16–20 h, OD600
# [4] = isolate AB2, planktonic, broth microdilution, CAMHB, 37°C 16–20 h, OD600
# [5] = isolate AB3, planktonic, broth microdilution, CAMHB, 37°C 16–20 h, OD600
# [6] = isolate AB4, planktonic, broth microdilution, CAMHB, 37°C 16–20 h, OD600
# [7] = isolate AB5, planktonic, broth microdilution, CAMHB, 37°C 16–20 h, OD600
# [8] = isolate AB6, planktonic, broth microdilution, CAMHB, 37°C 16–20 h, OD600
# [9] = isolate AB7, planktonic, broth microdilution, CAMHB, 37°C 16–20 h, OD600
# [10] = isolate AB8, planktonic, broth microdilution, CAMHB, 37°C 16–20 h, OD600
# [11] = isolate AB9, planktonic, broth microdilution, CAMHB, 37°C 16–20 h, OD600
# [12] = Acinetobacter baumannii, isolate AB1, planktonic, broth microdilution, CAMHB, 37°C 16–20 h, OD600, read-out: MIC
# [13] = Acinetobacter baumannii, isolate AB2, planktonic, broth microdilution, CAMHB, 37°C 16–20 h, OD600, read-out: MIC
# [14] = Acinetobacter baumannii, isolate AB3, planktonic, broth microdilution, CAMHB, 37°C 16–20 h, OD600, read-out: MIC
# [15] = Acinetobacter baumannii, isolate AB4, planktonic, broth microdilution, CAMHB, 37°C 16–20 h, OD600, read-out: MIC
# [16] = Acinetobacter baumannii, isolate AB5, planktonic, broth microdilution, CAMHB, 37°C 16–20 h, OD600, read-out: MIC
# [17] = Acinetobacter baumannii, isolate AB6, planktonic, broth microdilution, CAMHB, 37°C 16–20 h, OD600, read-out: MIC
# [18] = Acinetobacter baumannii, isolate AB7, planktonic, broth microdilution, CAMHB, 37°C 16–20 h, OD600, read-out: MIC
# [19] = Acinetobacter baumannii, isolate AB8, planktonic, broth microdilution, CAMHB, 37°C 16–20 h, OD600, read-out: MIC
# [20] = Acinetobacter baumannii, isolate AB9, planktonic, broth microdilution, CAMHB, 37°C 16–20 h, OD600, read-out: MIC
Compound,"MIC [2, 3] [mg/L]","MIC [2, 4] [mg/L]","MIC [2, 5] [mg/L]","MIC [2, 6] [mg/L]","MIC [2, 7] [mg/L]","MIC [2, 8] [mg/L]","MIC [2, 9] [mg/L]","MIC [2, 10] [mg/L]","MIC [2, 12] [mg/L]","MIC [2, 13] [mg/L]","MIC [2, 14] [mg/L]","MIC [2, 15] [mg/L]","MIC [2, 16] [mg/L]","MIC [2, 17] [mg/L]","MIC [2, 18] [mg/L]","MIC [2, 19] [mg/L]","MIC [2, 20] [mg/L]",further results
teicoplanin,64,64,32,32,64,32,128,32,,,,,,,,,,"MBIC ([1]; isolate AB2): 64 µg/mL; MBIC ([1]; isolate AB3): 64 µg/mL; MBIC ([1]; isolate AB6): 64 µg/mL; MBIC ([1]; isolate AB9): 64 µg/mL; MIC [2, 11]: 64 mg/L"
"CN(C)c1ccc(O)c2c1C[C@H]1C[C@H]3[C@H](N(C)C)C(O)=C(C(N)=O)C(=O)[C@@]3(O)C(O)=C1C2=O [Minocycline, minocycline]",,,,,,,,,16,16,16,16,16,16,16,16,16,
"CC[C@H](C)CCCCC(=O)N[C@@H](CCN)C(=O)N[C@H](C(=O)N[C@@H](CCN)C(=O)N[C@H]1CCNC(=O)[C@H]([C@@H](C)O)NC(=O)[C@H](CCN)NC(=O)[C@H](CCN)NC(=O)[C@H](CC(C)C)NC(=O)[C@@H](Cc2ccccc2)NC(=O)[C@H](CCN)NC1=O)[C@@H](C)O [Polymyxin B, polymyxin B] (X1-[Dab]T[Dab][Dab][Dab][dF]L[Dab][Dab]T; lactam 4-C (inferred); N-terminus assumed)",2,1,1,2,2,1,2,2,,,,,,,,,,"MBIC ([1]; isolate AB1): 16 µg/mL; MBIC ([1]; isolate AB2): 16 µg/mL; MBIC ([1]; isolate AB3): 8 µg/mL; MBIC ([1]; isolate AB4): 8 µg/mL; MBIC ([1]; isolate AB5): 16 µg/mL; MBIC ([1]; isolate AB6): 16 µg/mL; MBIC ([1]; isolate AB7): 8 µg/mL; MBIC ([1]; isolate AB8): 8 µg/mL; MBIC ([1]; isolate AB9): 8 µg/mL; MIC [2, 11]: 2 mg/L"
"CC(C)(O/N=C(\C(=O)N[C@@H]1C(=O)N2C(C(=O)[O-])=C(C[n+]3ccccc3)CS[C@H]12)c1csc(N)n1)C(=O)O [Ceftazidime, ceftazidime]",256,256,256,256,256,256,256,256,,,,,,,,,,MIC ([2]; Acinetobacter baumannii): 256 mg/L
"C[C@H]1COc2c(N3CCN(C)CC3)c(F)cc3c(=O)c(C(=O)O)cn1c23 [Levofloxacin, levofloxacin]",,,,,,,,,16,16,16,8,8,16,8,16,16,
"CCN1CCN(C(=O)N[C@@H](C(=O)N[C@@H]2C(=O)N3[C@@H]2SC(C)(C)[C@@H]3C(=O)O)c2ccccc2)C(=O)C1=O [Piperacillin, piperacillin]",,,,,,,,,> 1020,> 1020,> 1020,> 1020,> 1020,> 1020,> 1020,> 1020,> 1020,
"C[C@@H](O)[C@H]1C(=O)N2C(C(=O)O)=C(SCCN=CN)C[C@H]12 [Imipenem, imipenem]",,,,,,,,,64,64,64,64,64,64,64,64,64,
"CN(C)[C@@H]1C(O)=C(C(N)=O)C(=O)[C@@]2(O)C(O)=C3C(=O)c4c(O)cccc4[C@@](C)(O)[C@H]3C[C@@H]12 [Tetracycline, tetracycline]",,,,,,,,,> 1020,> 1020,> 1020,> 1020,> 1020,> 1020,> 1020,> 1020,> 1020,
"NCC[C@H](O)C(=O)N[C@@H]1C[C@H](N)[C@@H](O[C@H]2O[C@H](CN)[C@@H](O)[C@H](O)[C@H]2O)[C@H](O)[C@H]1O[C@H]1O[C@H](CO)[C@@H](O)[C@H](N)[C@H]1O [Amikacin, amikacin]",,,,,,,,,> 1020,> 1020,> 1020,> 1020,> 1020,> 1020,> 1020,> 1020,> 1020,
"C[C@@H](O)[C@H]1C(=O)N2C(C(=O)O)=C(S[C@@H]3CN[C@H](C(=O)N(C)C)C3)[C@H](C)[C@H]12 [Meropenem, meropenem]",,,,,,,,,32,32,32,32,32,32,32,32,32,
"CNC(C)C1CCC(N)C(OC2C(N)CC(N)C(OC3OCC(C)(O)C(NC)C3O)C2O)O1 (stereo not shown) [Gentamicin, gentamicin]",>1024,>1024,>1024,>1024,>1024,>1024,>1024,>1024,,,,,,,,,,MIC ([2]; Acinetobacter baumannii): > 1020 mg/L
"O=C(N[C@H](CO)[C@H](O)c1ccc([N+](=O)[O-])cc1)C(Cl)Cl [Chloramphenicol, chloramphenicol]",,,,,,,,,32,32,32,32,32,32,32,32,32,
"CO/N=C(\C(=O)N[C@@H]1C(=O)N2C(C(=O)O)=C(COC(C)=O)CS[C@H]12)c1csc(N)n1 [Cefotaxime, cefotaxime]",256,256,256,256,256,256,256,256,,,,,,,,,,MIC ([2]; Acinetobacter baumannii): 256 mg/L
